The values below are quoted from earlier work in US9585959B2, “Robust controlled-release formulations” (CAMURUS AB, priority 2011, dated 2017).

*1 amine or outer side, *2 acyl side, *3 side chain or, on linkers, in order; H or OH if unused. Where a SMILES comes first, the peptide text is derived from it. Side-chain parts run from the residue outwards. [ ]: non-standard residue; d: D form. The star is where a group is joined. Ethylenediamine = C(CN[*:2])N[*:1]; Hyp = O=C(O)[C@@H]1C[C@@H](O)CN1; Phg = N[C@H](C(=O)O)c1ccccc1; CO = O=C([*:1])[*:2]; Bn = c1ccc(C*)cc1

For data set [1] the following is noted: in vivo.
Data set [2] relates to somatostatin receptor subtypes sstr1,2,3 and sstr5.

Consider “Ala-Gly-Cys-Lys-Asn-Phe-Phe-Trp-Lys-Thr-Phe-Thr-Ser-Cys [SST-14]”, for which, in data set [1], the Biological half-life was 1-3 minutes. In addition, the “Affinity of the five SSTRs” value in the data set with SSTRs (SSTR1-SSTR5) (SSTR1-SSTR5) is given as “equally high affinity”.
Consider `NCCCC[C@@H]1NC(=O)[C@@H](Cc2c[nH]c3ccccc23)NC(=O)[C@H](c2ccccc2)NC(=O)[C@@H]2C[C@@H](OC(=O)NCCN)CN2C(=O)[C@H](Cc2ccccc2)NC(=O)[C@H](Cc2ccc(OCc3ccccc3)cc2)NC1=O` [Pasireotide] (cyclo(F[Hyp]([CO-Ethylenediamine])[Phg][dW]KY(Bn))), for which the Affinity entry in data set [2] was “high affinity”.
`C[C@@H](O)[C@@H]1NC(=O)[C@H](CCCCN)NC(=O)[C@@H](Cc2c[nH]c3ccccc23)NC(=O)[C@H](Cc2ccccc2)NC(=O)[C@@H](NC(=O)[C@H](N)Cc2ccccc2)CSSC[C@@H](C(=O)N[C@H](CO)[C@@H](C)O)NC1=O` [Octreotide, D-Phe-Cys-Phe-D-Trp-Lys-Thr-Cys-Thr-ol (2-7 disulphide bridge)]: in the data set on SSTRs (SSTR1-SSTR5) (for SSTR2 and SSTR5), the Selectivity result is reported as “high selectivity”.
